Reference: patent publication US10189839B2, “Tricyclic imidazole compounds as inhibitors of tryptophan hydroxylase” (ACTELION PHARMACEUTICALS LTD, priority 2013, dated 2019)

Molecular target: T1, full length human TPH1 (Homo sapiens, UniProt P17752)
T1 construct: To generate the enzyme, full length human TPH1 is cloned into the plasmid pET20b(+); made in house; host or cells: E. coli
T1 sequence (P17752 1-444): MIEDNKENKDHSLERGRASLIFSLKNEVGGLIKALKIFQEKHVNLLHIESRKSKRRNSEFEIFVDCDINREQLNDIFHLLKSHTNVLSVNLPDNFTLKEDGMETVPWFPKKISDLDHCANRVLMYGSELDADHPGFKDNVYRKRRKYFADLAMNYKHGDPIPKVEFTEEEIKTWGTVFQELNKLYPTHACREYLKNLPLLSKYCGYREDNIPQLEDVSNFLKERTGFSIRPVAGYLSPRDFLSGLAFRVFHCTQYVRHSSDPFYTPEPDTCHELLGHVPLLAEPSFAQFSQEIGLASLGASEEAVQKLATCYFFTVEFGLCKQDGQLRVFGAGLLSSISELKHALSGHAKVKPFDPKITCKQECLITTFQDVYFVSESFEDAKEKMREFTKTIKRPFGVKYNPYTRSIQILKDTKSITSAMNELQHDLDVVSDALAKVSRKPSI
Experiment: Biochemical in vitro assay using fluorescence readout (TPH1 enzyme activity)
Details: Table 1, mean where determined several times
Method in brief: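 IC50 (mean of repeats) derived from 5-hydroxy-L-tryptophan fluorescence at 540 nm (300 nm excitation) relative to vehicle, after perchloric acid stop. Reaction: 60 min, 15° C., pH 7.6 Tris-HCl, 40 μM L-tryptophan, 100 μM 6-methyltetrahydropterine, DTT, catalase, with 40-80 nM purified full-length human TPH1 from E. coli.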

Structure (SMILES)	IC50 [nM]
Cc1nc(C)c(C2c3c(nc4n3CCCC4)CCN2C(=O)COc2ccc(N(C)S(C)(=O)=O)nc2Cl)s1 (stereo not drawn) [Example 1.10.12, N-(6-chloro-5-(2-(1-(2,4-dimethylthiazol-5-yl)-3,4,6,7,8,9-hexahydroimidazo[1,2-a:5,4-c′]dipyridin-2(1H)-yl)-2-oxoethoxy)pyridin-2-yl)-N-methylmethanesulfonamide]	20
O=C(NC1CC1)c1ccc(OCC(=O)N2CCc3nc4n(c3[C@@H]2c2ccc(C3CC3)cc2F)CCCC4)c(Cl)n1 [Example 1.8.6, (S)-6-chloro-N-cyclopropyl-5-(2-(1-(4-cyclopropyl-2-fluorophenyl)-3,4,6,7,8,9-hexahydroimidazo[1,2-a:5,4-c′]dipyridin-2(1H)-yl)-2-oxoethoxy)picolinamide]	9
CCc1nc(N2CCCS2(=O)=O)ccc1OCC(=O)N1CCc2nc3n(c2C1c1sc(C)nc1C)CCS3 (stereo not drawn) [Example 4.5.2, 1-(5-(2,4-dimethylthiazol-5-yl)-2,3,7,8-tetrahydrothiazolo[2′,3′:2,3]imidazo[4,5-c]pyridin-6(5H)-yl)-2-((6-(1,1-dioxidoisothiazolidin-2-yl)-2-ethylpyridin-3-yl)oxy)ethanone]	10
O=C(COc1ccc(-c2ncco2)nc1Cl)N1CCc2nc3n(c2C1c1ccc(C2CC2)cc1F)CCCC3 (stereo not drawn) [Example 1.8.2, 2-((2-chloro-6-(oxazol-2-yl)pyridin-3-yl)oxy)-1-(1-(4-cyclopropyl-2-fluorophenyl)-3,4,6,7,8,9-hexahydroimi-dazo[1,2-a:5,4-c′]dipyridin-2(1H)-yl)ethanone]	17
CS(=O)(=O)c1ccc(OCC(=O)N2CCc3nc4n(c3C2c2ccc(Cl)cc2F)CCCC4)c(Cl)n1 (stereo not drawn) [Example 1.1.28, 1-(1-(4-chloro-2-fluorophenyl)-3,4,6,7,8,9-hexahydroimidazo[1,2-a:5,4-c′]dipyridin-2(1H)-yl)-2-((2-chloro-6-(methylsulfonyl)pyridin-3-yl)oxy)ethan-1-one]	90
CCOC(=O)c1csc(C2c3c(nc4n3CCCC4)CCN2C(=O)COc2ccc(NS(C)(=O)=O)nc2Cl)n1 (stereo not drawn) [Example 1.5.1, Ethyl 2-(2-(2-((2-chloro-6-(methylsulfonamido)pyridin-3-yl)oxy)acetyl)-1,2,3,4,6,7,8,9-octahydroimidazo[1,2-a:5,4-c′]dipyridin-1-yl)thiazole-4-carboxylate]	558
CCc1nc(Cl)ncc1OCC(=O)N1CCc2nc3n(c2C1c1ccc(Cl)cc1F)CCS3 (stereo not drawn) [Example 4.1.11, 1-(5-(4-chloro-2-fluorophenyl)-2,3,7,8-tetrahydrothiazolo[2′,3′:2,3]imidazo[4,5-c]pyridin-6(5H)-yl)-2-((2-chloro-4-ethylpyrimidin-5-yl)oxy)ethanone]	185
O=C(NC1CC1)c1ccc(OCC(=O)N2CCc3nc4n(c3C2c2ccc(OC(F)(F)F)cc2F)CCCC4)c(Cl)n1 (stereo not drawn) [Example 1.20.1, 6-chloro-N-cyclopropyl-5-(2-(1-(2-fluoro-4-(trifluoromethoxy)phenyl)-3,4,6,7,8,9-hexahydroimidazo[1,2-a:5,4-c′]dipyridin-2(1H)-yl)-2-oxoethoxy)picolinamide]	26
Cc1nc(C)c(C2c3c(nc4n3CCCC4)CCN2C(=O)COc2ccc(NS(C)(=O)=O)nc2Cl)s1 (stereo not drawn) [Example 1.10.1, N-(6-chloro-5-(2-(1-(2,4-dimethylthiazol-5-yl)-3,4,6,7,8,9-hexahydroimidazo[1,2-a:5,4-c′]dipyridin-2(1H)-yl)-2-oxoethoxy)pyridin-2-yl)methanesulfonamide]	12
CN(C)C(=O)c1ccc(OC2(C(=O)N3CCc4nc5n(c4C3c3ccc(Cl)cc3F)CCCC5)CC2)c(Cl)n1 (stereo not drawn) [Example 1.1.26, 6-chloro-5-(1-(1-(4-chloro-2-fluorophenyl)-1,2,3,4,6,7,8,9-octahydroimidazo[1,2-a:5,4-c′]dipyridine-2-carbonyl)cyclopropoxy)-N,N-dimethylpicolinamide]	51
CCc1nc(NS(C)(=O)=O)ncc1OCC(=O)N1CCc2nc3n(c2C1c1ccc(C2CC2)cc1F)CCS3 (stereo not drawn) [Example 4.3.4, N-(5-(2-(5-(4-cyclopropyl-2-fluorophenyl)-2,3,7,8-tetrahydrothiazolo[2′,3′:2,3]imidazo[4,5-c]pyridin-6(5H)-yl)-2-oxoethoxy)-4-ethylpyrimidin-2-yl)methanesulfonamide]	25
CCc1nc(NS(C)(=O)=O)ccc1OCC(=O)N1CCc2nc3n(c2C1c1ncc(C2CC2)cc1F)CCS3 (stereo not drawn) [Example 4.2.2, N-(5-(2-(5-(5-cyclopropyl-3-fluoropyridin-2-yl)-2,3,7,8-tetrahydrothiazolo[2′,3′:2,3]imidazo[4,5-c]pyridin-6(5H)-yl)-2-oxoethoxy)-6-ethylpyridin-2-yl)methanesulfonamide]	8

The next lines start with the values.

IC50 [nM]	Structure (SMILES)
14	CC(=O)N1CCn2c(nc3c2C(c2ncccc2F)N(C(=O)COc2ccc(N4CCOCC4)nc2Cl)CC3)C1 (stereo not drawn) [Example 5.10.1, 1-(7-acetyl-1-(3-fluoropyridin-2-yl)-3,4,6,7,8,9-hexahydropyrido[4′,3′:4,5]imidazo[1,2-a]pyrazin-2(1H)-yl)-2-((2-chloro-6-morpholinopyridin-3-yl)oxy)ethanone]
11	CCc1nc(C)ccc1OCC(=O)N1CCc2nc3n(c2C1c1ccc(C2CC2)cc1F)CCN(C(C)=O)C3 (stereo not drawn) [Example 5.2.17, 1-(7-acetyl-1-(4-cyclopropyl-2-fluorophenyl)-3,4,6,7,8,9-hexahydropyrido[4′,3′:4,5]imidazo[1,2-a]pyrazin-2(1H)-yl)-2-((2-ethyl-6-methylpyridin-3-yl)oxy)ethanone]
4	O=C(COc1ccc(N2CCOCC2)nc1Cl)N1CCc2nc3n(c2C1c1ccc(C2CC2)cc1F)CCOC3 (stereo not drawn) [Example 6.2.1, 2-((2-chloro-6-morpholinopyridin-3-yl)oxy)-1-(6-(4-cyclopropyl-2-fluorophenyl)-3,4,8,9-tetrahydro-1H-pyrido[4′,3′:4,5]imidazo[2,1-c][1,4]oxazin-7(6H)-yl)ethanone]
4	O=C(COc1ccc(N2CCOCC2)nc1Cl)N1CCc2nc3n(c2C1c1ccc(Cl)cc1F)CCOC3 (stereo not drawn) [Example 6.1.1, 1-(6-(4-chloro-2-fluorophenyl)-3,4,8,9-tetrahydro-1 H-pyrido[4′,3′:4,5]imidazo[2,1-c][1,4]oxazin-7(6H)-yl)-2-((2-chloro-6-morpholinopyridin-3-yl)oxy)ethanone]
6	CC(=O)N1CCn2c(nc3c2C(c2sc(C(=O)N(C)C)cc2F)N(C(=O)COc2ccc(N4CCOCC4)nc2Cl)CC3)C1 (stereo not drawn) [Example 5.7.2, 5-(7-acetyl-2-(2-((2-chloro-6-morpholinopyridin-3-yl)oxy)acetyl)-1,2,3,4,6,7,8,9-octahydropyrido[4′,3′:4,5]imidazo[1,2-a]pyrazin-1-yl)-4-fluoro-N,N-dimethylthiophene-2-carboxamide]

Same assay, conditions: Table 2

IC50 [nM]	Structure (SMILES)
341	CC(C)(C)OC(=O)N1CCn2c(nc3c2C(c2cc(C(=O)NC#N)cs2)N(C(=O)COc2ccc(N4CCOCC4)nc2Cl)CC3)C1 (stereo not drawn) [Example 5.14.1, Tert-butyl 2-(2-((2-chloro-6-morpholinopyridin-3-yl)oxy)acetyl)-1-(4-(cyanocarbamoyl)thiophen-2-yl)-1,2,3,4,8,9-hexahydropyrido[4′,3′:4,5]imidazo[1,2-a]pyrazine-7(6H)-carboxylate]
